Experimental data as given in PubChem BioAssay AID1963973 (Molecular Pharmacology Branch, DTP, NCI, 2024).

Test system: 883617-216-R-J1-PDC tumor spheroids, viability
Assay: Anticancer human tumor 883617-216-R-J1-PDC patient-derived bladder carcinoma cell line growth inhibition [PI3K]
Conditions: spheroids with HUVEC and MSC; for IC50: curve of first compound; for viability, T/C: stronger effect = lower value
In short: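 Stroma-containing spheroids: tumor line, pooled-donor HUVEC, hMSC. Treatments: targeted agents with PI3K inhibitors. Dosing: clinically relevant, half-log spacing, 10 microM ceiling without known Cmax. Read-out: cell viability.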
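Note: spheroids exposed to agents for 7 days before the viability read.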

CNC(=O)c1ccc(N2C(=S)N(c3ccc(C#N)c(C(F)(F)F)c3)C(=O)C2(C)C)cc1F + CC(Nc1ncnc2nc[nH]c12)c1cc2cccc(Cl)c2c(=O)n1-c1ccccc1 showed an IC50 (second compound 0.0316 µM) greater than 10000 nM, an IC50 (second compound 0.1 µM) greater than 10000 nM and an IC50 (second compound 0.316 µM) greater than 10000 nM. The IC50 (second compound 1 µM) was greater than 10000 nM, the IC50 (second compound 3.16 µM) was greater than 10000 nM and the IC50 (second compound 10 µM) was 3250 nM. It also gave a viability, T/C (second compound 0.0316 µM, first compound 0.0316 µM) of 91.8%, a viability, T/C (second compound 0.0316 µM, first compound 0.1 µM) of 94.3% and a viability, T/C (second compound 0.0316 µM, first compound 0.316 µM) of 92.8%. The viability, T/C (second compound 0.0316 µM, first compound 1 µM) was 96.2%, the viability, T/C (second compound 0.0316 µM, first compound 3.16 µM) was 83.9% and the viability, T/C (second compound 0.0316 µM, first compound 10 µM) was 89%. It also gave a viability, T/C (second compound 0.1 µM, first compound 0.0316 µM) of 89.4%, a viability, T/C (second compound 0.1 µM, first compound 0.1 µM) of 93.2% and a viability, T/C (second compound 0.1 µM, first compound 0.316 µM) of 90.2%. The viability, T/C (second compound 0.1 µM, first compound 1 µM) was 103%, the viability, T/C (second compound 0.1 µM, first compound 3.16 µM) was 89.8% and the viability, T/C (second compound 0.1 µM, first compound 10 µM) was 67%. For the same compound, the viability, T/C (second compound 0.316 µM, first compound 0.0316 µM) was 88.1%, the viability, T/C (second compound 0.316 µM, first compound 0.1 µM) was 98.9% and the viability, T/C (second compound 0.316 µM, first compound 0.316 µM) was 84.9%. The viability, T/C (second compound 0.316 µM, first compound 1 µM) was 88.6%, the viability, T/C (second compound 0.316 µM, first compound 3.16 µM) was 82.7% and the viability, T/C (second compound 0.316 µM, first compound 10 µM) was 70.2%. The viability, T/C (second compound 1 µM, first compound 0.0316 µM) was 84.5%, the viability, T/C (second compound 1 µM, first compound 0.1 µM) was 90.8% and the viability, T/C (second compound 1 µM, first compound 0.316 µM) was 83%. The viability, T/C (second compound 1 µM, first compound 1 µM) was 89.8%, the viability, T/C (second compound 1 µM, first compound 3.16 µM) was 73.3% and the viability, T/C (second compound 1 µM, first compound 10 µM) was 79.7%. For the same compound, the viability, T/C (second compound 3.16 µM, first compound 0.0316 µM) was 70.6%, the viability, T/C (second compound 3.16 µM, first compound 0.1 µM) was 78.5% and the viability, T/C (second compound 3.16 µM, first compound 0.316 µM) was 72.7%. It also gave a viability, T/C (second compound 3.16 µM, first compound 1 µM) of 76.4%, a viability, T/C (second compound 3.16 µM, first compound 3.16 µM) of 69.2% and a viability, T/C (second compound 3.16 µM, first compound 10 µM) of 55.6%. It also gave a viability, T/C (second compound 10 µM, first compound 0.0316 µM) of 50.8%, a viability, T/C (second compound 10 µM, first compound 0.1 µM) of 53.1% and a viability, T/C (second compound 10 µM, first compound 0.316 µM) of 50.5%. For the same compound, the viability, T/C (second compound 10 µM, first compound 1 µM) was 47.4%, the viability, T/C (second compound 10 µM, first compound 3.16 µM) was 50.6% and the viability, T/C (second compound 10 µM, first compound 10 µM) was 38.9%.
Compound Cn1cnc2c(F)c(Nc3ccc(Br)cc3Cl)c(C(=O)NOCCO)cc21 + CC(Nc1ncnc2nc[nH]c12)c1cc2cccc(Cl)c2c(=O)n1-c1ccccc1 has an IC50 (second compound 0.0316 µM) of 43.1 nM, an IC50 (second compound 0.1 µM) of 39.3 nM and an IC50 (second compound 0.316 µM) of 32.7 nM. It also gave an IC50 (second compound 1 µM) of 22.7 nM, an IC50 (second compound 3.16 µM) of 9.6 nM and an IC50 (second compound 10 µM) of less than 9.49 nM. It also gave a viability, T/C (second compound 0.0316 µM, first compound 0.00949 µM) of 64.3%, a viability, T/C (second compound 0.0316 µM, first compound 0.03 µM) of 56.1% and a viability, T/C (second compound 0.0316 µM, first compound 0.0949 µM) of 39.5%. For the same compound, the viability, T/C (second compound 0.0316 µM, first compound 0.3 µM) was 33.4%, the viability, T/C (second compound 0.0316 µM, first compound 0.949 µM) was 33.5% and the viability, T/C (second compound 0.0316 µM, first compound 3 µM) was 19.9%. The viability, T/C (second compound 0.1 µM, first compound 0.00949 µM) was 66.4%, the viability, T/C (second compound 0.1 µM, first compound 0.03 µM) was 55% and the viability, T/C (second compound 0.1 µM, first compound 0.0949 µM) was 35.6%. For the same compound, the viability, T/C (second compound 0.1 µM, first compound 0.3 µM) was 28.8%, the viability, T/C (second compound 0.1 µM, first compound 0.949 µM) was 30% and the viability, T/C (second compound 0.1 µM, first compound 3 µM) was 19.7%. For the same compound, the viability, T/C (second compound 0.316 µM, first compound 0.00949 µM) was 68.8%, the viability, T/C (second compound 0.316 µM, first compound 0.03 µM) was 51% and the viability, T/C (second compound 0.316 µM, first compound 0.0949 µM) was 37.8%. For the same compound, the viability, T/C (second compound 0.316 µM, first compound 0.3 µM) was 28.4%, the viability, T/C (second compound 0.316 µM, first compound 0.949 µM) was 23.9% and the viability, T/C (second compound 0.316 µM, first compound 3 µM) was 19.6%. It also gave a viability, T/C (second compound 1 µM, first compound 0.00949 µM) of 60%, a viability, T/C (second compound 1 µM, first compound 0.03 µM) of 44.9% and a viability, T/C (second compound 1 µM, first compound 0.0949 µM) of 39.4%. For the same compound, the viability, T/C (second compound 1 µM, first compound 0.3 µM) was 28%, the viability, T/C (second compound 1 µM, first compound 0.949 µM) was 22.4% and the viability, T/C (second compound 1 µM, first compound 3 µM) was 19%. It also gave a viability, T/C (second compound 3.16 µM, first compound 0.00949 µM) of 50.3%, a viability, T/C (second compound 3.16 µM, first compound 0.03 µM) of 37% and a viability, T/C (second compound 3.16 µM, first compound 0.0949 µM) of 23.2%. The viability, T/C (second compound 3.16 µM, first compound 0.3 µM) was 20.6%, the viability, T/C (second compound 3.16 µM, first compound 0.949 µM) was 19% and the viability, T/C (second compound 3.16 µM, first compound 3 µM) was 11%. For the same compound, the viability, T/C (second compound 10 µM, first compound 0.00949 µM) was 31.2%, the viability, T/C (second compound 10 µM, first compound 0.03 µM) was 24.7% and the viability, T/C (second compound 10 µM, first compound 0.0949 µM) was 17.8%. It also gave a viability, T/C (second compound 10 µM, first compound 0.3 µM) of 13.3%, a viability, T/C (second compound 10 µM, first compound 0.949 µM) of 12.4% and a viability, T/C (second compound 10 µM, first compound 3 µM) of 8.11%.
